How the values were obtained:
Assay in all cases: relative viability (nuclei count vs DMSO), 5 days (fraction); higher = more cells survive
Bemcentinib + Decitabine = compound: Nc1nc(Nc2ccc3c(c2)CC[C@@H](N2CCCC2)CC3)nn1-c1cc2c(nn1)-c1ccccc1CCC2 [Bemcentinib] + Nc1ncn([C@H]2C[C@H](O)[C@@H](CO)O2)c(=O)n1 [Decitabine] (partner 2 µM)
Procedure, shortened: (§1)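 Relative viability is defined as nuclei in treated wells over nuclei in vehicle wells. Duplicate plates were run and medians reported. Lung cancer cell lines in 1536-well plates were dosed by pin tool one day after seeding, with one drug or with a fixed anchor-drug dose plus five library-drug doses (not always all listed) in √10 steps, and nuclei were counted after 5 days.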

[1] = compound: CC1=CC=C(C=C1)C(=O)CN2C3=C(CCCC3)SC2=N [Pifithrin_alpha] + CS(=O)(=O)N1CCN(Cc2cc3nc(-c4cccc5[nH]ncc45)nc(N4CCOCC4)c3s2)CC1 [Pictilisib] (partner 1 µM)
Procedure, shortened: as §1

Bemcentinib + Pictilisib = compound: Nc1nc(Nc2ccc3c(c2)CC[C@@H](N2CCCC2)CC3)nn1-c1cc2c(nn1)-c1ccccc1CCC2 [Bemcentinib] + CS(=O)(=O)N1CCN(Cc2cc3nc(-c4cccc5[nH]ncc45)nc(N4CCOCC4)c3s2)CC1 [Pictilisib] (partner 1 µM)
Procedure, shortened: as §1

[2] = compound: CC1=CC=C(C=C1)C(=O)CN2C3=C(CCCC3)SC2=N [Pifithrin_alpha] + CS(=O)(=O)CCNCc1ccc(-c2ccc3ncnc(Nc4ccc(OCc5cccc(F)c5)c(Cl)c4)c3c2)o1 [Lapatinib] (partner 2 µM)
Procedure, shortened: as §1

Row | Cell Line | relative viability (Bemcentinib + Decitabine; first compound 0.04 µM) | relative viability (Bemcentinib + Decitabine; first compound 0.1265 µM) | relative viability (Bemcentinib + Decitabine; first compound 0.4 µM) | relative viability (Bemcentinib + Decitabine; first compound 1.265 µM) | relative viability (Bemcentinib + Decitabine; first compound 4 µM) | relative viability ([1]; first compound 1 µM) | relative viability ([1]; first compound 3.162 µM) | relative viability ([1]; first compound 10 µM) | relative viability ([1]; first compound 100 µM) | relative viability (Bemcentinib + Pictilisib; first compound 0.04 µM) | relative viability (Bemcentinib + Pictilisib; first compound 0.1265 µM) | relative viability (Bemcentinib + Pictilisib; first compound 0.4 µM) | relative viability (Bemcentinib + Pictilisib; first compound 1.265 µM) | relative viability (Bemcentinib + Pictilisib; first compound 4 µM) | relative viability ([2]; first compound 1 µM) | relative viability ([2]; first compound 3.162 µM) | relative viability ([2]; first compound 10 µM) | relative viability ([2]; first compound 100 µM) | relative viability ([1]; first compound 31.62 µM) | relative viability ([2]; first compound 31.62 µM)
1 | LK-2 | 0.214 | 0.374 | 0.342 | 0.23 | 0.313 | 0.631 | 0.599 | 0.589 | 0.62 | 0.526 | 0.608 | 0.583 | 0.748 | 0.611 | 0.893 | 1.18 | 0.969 | 1.47 | – | –
2 | LOU-NH91 | 0.78 | 0.82 | 0.837 | 0.863 | 0.801 | 0.473 | 0.476 | 0.444 | 0.371 | 0.498 | 0.526 | 0.556 | 0.524 | 0.483 | 0.576 | 0.604 | 0.633 | 0.493 | 0.442 | 0.492
3 | LU99A | 0.918 | 0.882 | 0.899 | 0.975 | 0.987 | 0.35 | 0.311 | 0.325 | 0.305 | 0.362 | 0.356 | 0.329 | 0.346 | 0.357 | 0.852 | 1.21 | 1.12 | 1.18 | – | –
4 | LXF-289 | 0.431 | 0.323 | 0.417 | 0.398 | 0.364 | 0.818 | 0.694 | 0.726 | 0.687 | 0.871 | 0.854 | 0.814 | 0.79 | 0.844 | 0.912 | 0.979 | 0.85 | 0.837 | 0.498 | 0.749
5 | NCI-H441 | 0.208 | 0.276 | 0.218 | 0.236 | 0.255 | 0.552 | 0.582 | 0.624 | 0.438 | 0.572 | 0.53 | 0.575 | 0.509 | 0.399 | – | – | – | – | 0.436 | –
6 | NCI-H522 | 0.759 | 0.789 | 0.657 | 0.558 | 0.619 | – | – | – | – | – | – | – | – | – | – | – | – | – | – | –
7 | NCI-H1299 | – | – | – | – | – | 0.797 | 0.827 | 0.919 | 0.762 | 0.818 | 0.793 | 0.878 | 0.874 | 0.75 | 0.976 | 0.985 | 1.02 | 0.947 | 0.452 | 0.73
8 | NCI-H1563 | – | – | – | – | – | 0.53 | 0.688 | 0.61 | 0.705 | 0.634 | 0.629 | 0.635 | 0.655 | 0.626 | 0.623 | 0.863 | 0.931 | 1.01 | 0.65 | 0.769
9 | NCI-H1648 | 0.411 | 0.413 | 0.483 | 0.569 | 0.43 | – | – | – | – | – | – | – | – | – | – | – | – | – | – | –
10 | NCI-H1703 | – | – | – | – | – | 0.25 | 0.24 | 0.261 | 0.251 | 0.246 | 0.259 | 0.23 | 0.22 | 0.243 | 1.07 | 1.03 | 1.04 | 1.32 | 0.214 | 0.863
11 | NCI-H2228 | – | – | – | – | – | 0.516 | 0.352 | 0.434 | 0.303 | – | 0.444 | 0.479 | 0.535 | 0.343 | 1.25 | 1.19 | 0.848 | 0.904 | 0.294 | 0.747
12 | NCI-H2342 | 0.746 | 0.768 | 0.771 | 0.73 | 0.827 | – | – | – | – | – | – | – | – | – | – | – | – | – | – | –
13 | SW 900 | 0.406 | 0.479 | 0.432 | 0.428 | 0.398 | – | – | – | – | – | – | – | – | – | – | – | – | – | – | –
